We go through 7 compounds from PubChem BioAssay (NCI).

Values joined by “and” are separate entries in the source; they are usually repeats but may differ in a detail not shown here. Identical values can stand only once.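 Growth conditions: 96-well plates. Treatment: test compound, 48 hours, 5 concentrations. Analysis: linear interpolation between bracketing concentrations; unreached endpoints set to highest concentration. At the GI50, growth is halved. Definition used: TGI = concentration required for complete inhibition of growth.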

What all share (test): NCI anticancer screen, dose series, 48 h
For assay [1], the system named is SW-620 colon.
The test system of assay [2] is SK-MEL-5 melanoma.
The subject of assay [3] is HT29 colon.
For assay [4], the system named is NCI/ADR-RES ovarian.
Assay [5] has as its system HCC-2998 colon.
In assay [6] the test system is SF-539 CNS.
Assay [7] deals with MDA-MB-435.
For assay [8], the system named is SF-268 CNS.
The test system of assay [9] is MDA-MB-231 breast.
Assay [10] has as its system MOLT-4 leukemia.

With `COc1cc2c3c(n(CCCN4CCNCC4)c(=O)c2cc1OC)-c1cc2c(cc1C3=O)OCO2`, the GI50 is 0.0613 µM in [1]; 1.33 µM in [2]; 0.942 µM in assay [3]; 2.77 µM in assay [4]; 1.15 µM in assay [5]; 0.0399 µM in assay [6]. For the same compound, the GI50 in assay [7] was 3.27 µM; in assay [8], 0.795 µM; in assay [9], 0.803 µM; in [10] it was 0.005 µM. Moreover, the TGI is 6.32 µM in [1]; 10.5 µM in [2]; 29.8 µM in assay [3]; 11.5 µM in [4]; 3.98 µM in [5]; 0.355 µM in [6]. Besides, the TGI worked out at 11.3 µM in assay [7], 8.49 µM in [8], 2.23 µM in assay [9] and 0.533 µM in assay [10].

For the compound `C/C(CCC(=O)O)=N/Nc1ccc([N+](=O)[O-])cc1`, the GI50 in assay [1] was 2.6 µM; in assay [2], 10.1 µM; in assay [3] it was greater than 100 µM; in assay [4], 4.44 µM; in [5], 5.94 µM; in assay [6], 3.18 µM. Also, the GI50 is 4.37 µM in [7], 29 µM in assay [8], 7.16 µM in assay [9] and 4.27 µM in assay [10]. Besides, the TGI in assay [1] is greater than 100 µM; in assay [2], greater than 100 µM; in assay [3], greater than 100 µM; in assay [4], greater than 100 µM; in assay [5], greater than 100 µM; in [6] it was 14.8 µM. The TGI in assay [7], in assay [8], in assay [9] and in [10] was greater than 100 µM each time.

Turning to `CCCCCCC1N=C(N)N=C(N)N1c1cccc(Cl)c1` (stereo not given), the GI50 in assay [1] was 0.188 µM; in assay [2], 0.474 µM; in [3], 0.0514 µM; in assay [4] it was 75.8 µM; in assay [5], 0.668 µM; in assay [6] it was 0.0846 µM. The GI50 in [7] was 0.0479 µM; in assay [8] it was 0.0591 µM; in assay [9], 1.93 µM; in assay [10], 0.94 µM. Further, the TGI in assay [1] was 15.9 µM; in [2] it was 13 µM; in [3] it was 7.23 µM; in assay [4] it was greater than 100 µM; in assay [5] it was 11.2 µM; in assay [6] it was 5.76 µM. Further, the TGI in assay [7] turned out to be 13.2 µM; in assay [8], 11.5 µM; in [9] it was 22.5 µM; in assay [10], 17.8 µM.

Regarding `O=[N+]([O-])c1ccc(/C=C/c2nc3ccc(Cl)cc3[nH]2)cc1`, the GI50 is 28.7 µM in [1]; 31.6 µM in assay [2]; 17.8 µM in assay [3]; 15 µM in [4]; 19.5 µM in assay [5]; 15.9 µM in assay [6]. Also, the GI50 in [7] was 5.36 µM; in [8] it was greater than 100 µM; in assay [9] it was 26.5 µM; in [10], 59.7 µM. In addition, the TGI in assay [1] was greater than 100 µM; in assay [2] it was greater than 100 µM; in assay [3] it was greater than 100 µM; in assay [4] it was greater than 100 µM; in [5], 88.1 µM; in assay [6], 39.4 µM. Besides, the TGI in assay [7], in assay [8], in assay [9] and in assay [10] was greater than 100 µM throughout.

Take `O=C(Cn1c(C(=O)c2ccc(Cl)cc2)nc(-c2ccc(Cl)cc2)c1-c1ccc(Cl)cc1)c1ccccc1`: the GI50 in assay [1], in [2], in [3], in assay [4], in assay [5] and in [6] was greater than 100 µM throughout. In addition, the GI50 in assay [7], in assay [8], in assay [9] and in [10] was greater than 100 µM throughout. Besides, the TGI in assay [1], in assay [2], in [3], in assay [4], in assay [5] and in assay [6] was greater than 100 µM each time. For the same compound, the TGI in [7], in assay [8], in assay [9] and in assay [10] was greater than 100 µM in each case.

As for `N#Cc1c(NCc2ccccc2)nc(NCc2ccccc2)c(C#N)c1-c1ccc(Cl)cc1`, the GI50 was > 50 µM and 44.1 µM in assay [1]; greater than 100 µM in [2]; greater than 100 µM in assay [3]; > 50 µM and 96.6 µM in assay [4]; greater than 100 µM in assay [5]; > 50 µM and 29 µM in assay [6]. The GI50 in assay [7] was > 50 µM and 43.6 µM; in assay [8], > 50 µM and 25.4 µM; in assay [9], > 50 µM and 31.9 µM; in [10], > 50 µM and 76.9 µM. The TGI in assay [1], in assay [2], in [3], in [4], in [5] and in assay [6] was greater than 100 µM throughout. Besides, the TGI was greater than 100 µM in [7]; > 50 µM and 80 µM in [8]; greater than 100 µM in assay [9]; greater than 100 µM in assay [10].

For `CCN1CCC(CC(=O)Nc2n[nH]c3nnc(-c4cccc(F)c4F)cc23)CC1`, the GI50 is greater than 25 µM in [1]; greater than 6.37 µM in assay [2]; 12.4 µM in assay [3]; greater than 25 µM in assay [4]; greater than 25 µM in assay [5]; greater than 18.9 µM in assay [6]. Besides, the GI50 in assay [7], in [8], in [9] and in assay [10] was greater than 25 µM in each case. The TGI in assay [1], in assay [2], in [3], in [4], in assay [5] and in [6] was greater than 25 µM throughout. Also, the TGI in assay [7], in assay [8], in assay [9] and in [10] was greater than 25 µM in each case.
